Measurements from patent publication US20110098309A1, “METHODS OF INHIBITING THE FORMATION OF AMYLOID-BETA DIFFUSABLE LIGANDS USING ACYLHYDRAZIDE COMPOUNDS” (priority 2007, published 2011).
Several values for one entry are separate records, joined by “and”; a condition that tells them apart may be missing. Identical values can stand only once.

Columns and labels:
Aβ1-42 = Aβ1-42 (Homo sapiens, UniProt P05067); test: FRET assay of Aβ1-42 oligomer (ADDL) assembly inhibition; type: biochemical; settings: 0.2 μM FITC-Aβ(1-42) and 0.8 μM Aβ(1-42), 37° C., six concentrations from about 10 μM to about 0.03 μM
Sequence of Aβ1-42 (P05067 672-713 limits assumed): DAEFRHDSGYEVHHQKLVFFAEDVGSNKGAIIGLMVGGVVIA
Outline: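 Fluorescein-quenching FRET read with 0.2 μM FITC-Aβ(1-42) plus 0.8 μM Aβ(1-42) in 25 mM MOPS-Tris pH 8.0, 100 mM MgCl2, 37° C. Compound tested at six concentrations from about 10 μM down to about 0.03 μM. Fluorescence read every five minutes over about three hours; inhibition seen as absent or attenuated quenching.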

Aβ1-42 ADDLs = target: T1, Aβ1-42 ADDLs (Homo sapiens, UniProt P05067); test: Alternating Lever Cyclic Ratio (ALCR) rat model; type: in vivo; settings: for Approach Errors / Perseveration Errors: injection via cannula into lateral ventricle, compared to baseline error rates
T1 construct: Synthetic Aβ1-42 powder was dissolved in 1,1,1,3,3,3-hexafluorisopropanol (HFIP)
T1 sequence (P05067 672-713 limits assumed): as above
Experimental: Preparations of Aβ1-42 ADDLs and a potential therapeutic compound under the Alternating Lever Cyclic Ratio (ALCR) rat model of AD were tested to show in vivo efficacy. This highly sensitive model has been able to detect cognitive deficits due to direct injection of cell-derived Aβ oligomers into rat brain. Using this technique, a direct injection of ADDLs made from synthetic Aβ1-42 and a putative therapeutic compound under the ALCR procedure were tested.
In this task, rats learned a complex sequence of lever-pressing requirements in order to earn food reinforcement in a two-lever experimental chamber. Subjects alternated between two levers by switching to the other lever after pressing the first lever enough to get food reward. The exact number of presses required for each food reward changed, first increasing from 2 responses per food pellet up to 56 presses per food pellet, then decreasing back to 2 responses per pellet. Intermediate values were based on the quadratic function, x^2−x. One cycle was an entire ascending and descending sequence of these lever press requirements (e.g., 2, 6, 12, 20, 30, 42, 56, 56, 42, 30, 20, 12, 6, and 2 presses per food reward). Six such full cycles were presented during each daily session.
Synthetic Aβ1-42 powder was dissolved in 1,1,1,3,3,3-hexafluorisopropanol (HFIP) to afford a solution of Aβ1-42 in HFIP of about 1 mM and allowed to incubate at ambient temperature for about 1 h. The resulting solution was chilled on ice for about 5-10 min, then aliquoted into eppendorf tubes to provide about 50 μL of solution per tube. The tubes were then placed in a chemical fume hood and allowed to stand overnight to allow the HFIP to evaporate under a slow stream of nitrogen. To remove final traces of HFIP, the tubes were subjected to two SpeedVac cycles of 15 min at room temperature and about 15 to 25 mm Hg of vacuum. The resulting films of monomerized Aβ1-42 peptide were stored over desiccant at −80° C. until used.
A tube of monomerized Aβ1-42 peptide was warmed to room temperature and the Aβ1-42 peptide was dissolved in anhydrous DMSO to afford a peptide stock DMSO solution containing about 10 μM to about 100 μM Aβ1-42 peptide in DMSO.
The concentration of the test compound is listed below in Table 3.
For the Aβ1-42 peptide only treatment, peptide stock DMSO solution was added to 37° C. neural basal to obtain the requisite Aβ1-42 peptide monomer concentration, provided that the maximum concentration of DMSO is 1% or less, and the tube was vortexed for 30 to 60 seconds, spun down briefly in a microfuge and incubated at 37° C. for 15 min prior to the start of injections.
For the Aβ1-42 peptide plus test compound treatment, peptide stock DMSO solution was added to 37° C. compound neural basal media solution to obtain the requisite Aβ1-42 peptide monomer concentration, provided that the maximum concentration of DMSO is 1% or less, and the tube was vortexed for 30 to 36 seconds, spun down briefly in a microfuge and incubated at 37° C. for 15 min prior to the start of injections.
For control injections, compound neural basal media solution was incubated at 37° C. for 15 min prior to the start of injections.
Rats: Rats are trained under ALCR until their error rates are stable. Once the rats are placed upon the final ALCR procedure, training sessions are conducted 7 days each week until the end of the study.
Surgery: All rats received a single 28 gauge cannula, which was permanently affixed to the skull, and aimed at the lateral ventricle. Half of the rats received cannula in the right ventricle and half receive cannula in the left ventricle. Rats were allowed 5 days to recover from surgery before training resumed.
Injection of Test Material and ALCR Testing: Test were conducted about every fourth day. Animals received a 10-20 μL injection of control, peptide, or peptide plus compound solutions via the implanted cannula over about 3 to 4 minutes. Animals were tested about 3 hours following injection. […]

[1] = 1 nM ADDLs + 2 μM compound, rats tested about 3 hours after injection
[2] = 2 μM compound alone (no ADDLs), rats
[3] = ADDLs injected along with compound, rats
[4] = 27 nM Aβ1-42 monomer alone, rats

Molecule	IC50 (Aβ1-42) [µM]	Approach Errors (Aβ1-42 ADDLs; [1])	Perseveration Errors (Aβ1-42 ADDLs; [1])	Approach Errors (Aβ1-42 ADDLs; [2]) [%]	Perseveration Errors (Aβ1-42 ADDLs; [2]) [%]	Perseveration error (in words) (Aβ1-42 ADDLs; [3])	Approach Errors (Aβ1-42 ADDLs; 1 nM ADDLs alone, rats)	Perseveration Errors (Aβ1-42 ADDLs; 1 nM ADDLs alone, rats)	Perseveration error (in words) (Aβ1-42 ADDLs; ADDLs compared to vehicle or Aβ1-42 monomer alone, rats)	Approach Errors (Aβ1-42 ADDLs; [4]) [%]	Perseveration Errors (Aβ1-42 ADDLs; [4]) [%]
O=C(C/C(=N/NC(=O)c1ccccc1O)C(F)(F)F)c1cccs1 [Compound 2, 2-hydroxy-N′-(1,1,1-trifluoro-4-oxo-4-(thiophen-2-yl)butan-2-ylidene)benzohydrazide]	4.5	115%	105%	92	85	decreased significantly					
O=C(N/N=C/c1c(O)ccc2ccccc12)c1ccccc1O [Compound 89, 2-hydroxy-N′-((2-hydroxy-naphthalen-1-yl)methylene)benzohydrazide]		100% and 111%	92% and 107%	101	112	decreased significantly					
ADDLs: amyloid beta-derived diffusable ligands: soluble, oligomeric, globular, non-fibrillar, neurotoxic Aβ1-42 peptides, made from synthetic Aβ1-42 [reference compound]							102% and 142%	133% and 127%	increased the Perseveration error		
Aβ1-42 Monomer: monomerized synthetic Aβ1-42 peptide [reference compound]										105	117
